According to ChEMBL document CHEMBL2331498, “Mycoleptodiscins A and B, cytotoxic alkaloids from the endophytic fungus Mycoleptodiscus sp. F0194” (J Nat Prod, 2013):

Legend:
[1] = test system: IMR-90; experiment: Cytotoxicity against human IMR90 cells after 96 hrs by CellTiter-Glo assay; format: cell-based; conditions: IMR-90, 96 h
[2] = test system: PC-3; experiment: Cytotoxicity against human PC3 cells after 96 hrs by CellTiter-Glo assay; format: functional, cell-based; conditions: PC-3, 96 h
[3] = test system: A2058; experiment: Cytotoxicity against human A2058 cells after 96 hrs by CellTiter-Glo assay; format: functional, cell-based; conditions: A2058, 96 h
[4] = Cytotoxicity against human H522-T1 cells after 96 hrs by CellTiter-Glo assay; format: functional, cell-based; conditions: H522-T1, 96 h
[5] = Cytotoxicity against human H460 cells after 96 hrs by CellTiter-Glo assay; format: functional, cell-based; conditions: NCI-H460, 96 h

Compound | IC50 [1] | IC50 [2] | IC50 [3] | IC50 [4] | IC50 [5]
N#CC(=O)C#N [CARBONYL CYANIDE] | 5 µM | – | – | – | –
CC1(C)CCC[C@@]2(C)C1CC[C@@]1(C)C3=CC(=O)C(=O)c4[nH]cc(c43)C[C@@]12O (some centres undefined) [MYCOLEPTODISCIN B] | 0.41 µM | 0.6 µM | 0.78 µM | 0.63 µM | 0.66 µM
CC[C@]1(O)C[C@@H]2CN(CCc3c([nH]c4ccccc34)[C@@](C(=O)OC)(c3cc4c(cc3OC)N(C)[C@H]3[C@@](O)(C(=O)OC)[C@H](OC(C)=O)[C@]5(CC)C=CCN6CC[C@]43[C@@H]65)C2)C1 [VINBLASTINE] | – | 0.005 µM | – | 0.009 µM | 0.002 µM
